By IC50 is commonly meant the midpoint of a concentration-inhibition curve.

Counter-ions that a name gives are not always drawn. Numbered stars: 1 amine (or outer) side, 2 acyl side, 3 side chain; on linkers, the order of the positions; unused ones are H or OH. Square brackets hold non-standard residues; d marks the D form. Peptide text beside a SMILES is read from it. * marks the point of attachment. Ala(6-iPr-benzothiazol-2-yl) = CC(C)c1ccc2nc(C[C@H](N)C(=O)O)sc2c1; 2Nal = N[C@@H](Cc1ccc2ccccc2c1)C(=O)O; Gly(cPent) = N[C@H](C(=O)O)C1CCCC1; tBuAla = CC(C)(C)C[C@H](N)C(=O)O; Chg = N[C@H](C(=O)O)C1CCCCC1; Isobutyryl = CC(C)C(=O)*; CO = O=C([*:1])[*:2]; Propionyl = CCC(=O)*; Tfa = O=C(C(F)(F)F)*; Moc = COC(=O)*

The results in this text go back to US12012467B2, “Small molecule DCN1 inhibitors and therapeutic methods using the same” (THE REGENTS OF THE UNIVERSITY OF MICHIGAN, priority 2017, dated 2024).

Sequence of DCN1 (Q96GG9 58-259): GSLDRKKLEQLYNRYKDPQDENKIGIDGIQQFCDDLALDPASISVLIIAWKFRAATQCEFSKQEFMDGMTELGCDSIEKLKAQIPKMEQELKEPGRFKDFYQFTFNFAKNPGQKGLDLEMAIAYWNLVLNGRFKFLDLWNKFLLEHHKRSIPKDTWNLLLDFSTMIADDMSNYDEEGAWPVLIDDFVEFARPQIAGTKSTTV

The first test addresses DCN1 (Homo sapiens (Human), UniProt Q96GG9). The test can be described thus: Competitive FP binding assay.
Settings: not given
A digest of the protocol:
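FP competition with DCN1 in 100 mM phosphate pH 6.5, 0.02% Tween-20, 2% DMSO, probe 5 nM final. Equilibrated 30 min at room temperature with shaking. DCN1 was His6-tagged (uncleaved), expressed in E. coli Rosetta2 and purified by Ni-NTA and gel filtration.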
Regarding `CC[C@H](C)[C@H](NC(=O)[C@H](Cc1ccc2ccccc2c1)NC(=O)C(F)(F)F)C(=O)N[C@@H](CCCCN)C(=O)N[C@@H](CC(C)C)C(N)=O` [Example 137] (Tfa-[2Nal]IKL-NH2), the “Binding affinity to DCN1 (IC50 (nM))” value is on record as “precipitation”.

Still in this test, the particulars now being: bounds given in μM; read-out: Binding affinity to DCN1 (IC50).
As to `CCC(=O)N[C@@H](Cc1nc2ccc(Cl)cc2s1)C(=O)N[C@H](C(=O)N[C@@H](CCCCN)C(=O)N[C@@H]1CCOc2ccccc21)C1CCNCC1` [Example 35], the IC50 is over 5 µM.

Turning to `CCC(=O)N[C@@H](Cc1nc2ccc(Cl)cc2s1)C(=O)N[C@@H](CN)Cc1ccccc1` (stereo in doubt) [Example 88], the IC50 was over 10 µM.

With `CCC(=O)N[C@@H](Cc1nc(C)c(-c2cccnc2)s1)C(=O)N[C@H](CN)Cc1ccccc1` [Example 229], the half-inhibitory concentration (IC50) is over 10 µM.

Turning to `CC[C@H](C)[C@H](NC(=O)[C@H](Cc1ccc2ccccc2c1)NC(=O)NC)C(=O)N[C@@H](CCCCN)C(=O)N[C@@H](CC(C)C)C(N)=O` [Example 169] ({NHMe-CO}-[2Nal]IKL-NH2), the IC50 was over 10 µM.

As for `CC[C@H](C)[C@H](NC(=O)[C@H](Cc1ccc2ccccc2c1)NC(=O)OC)C(=O)N[C@@H](CCCCN)C(=O)N[C@@H](CC(C)C)C(N)=O` [Example 170] (Moc-[2Nal]IKL-NH2), the concentration for half-maximal inhibition (IC50) is over 10 µM.

In the case of `CCC(=O)N[C@@H](Cc1nc(CC)c(-c2ccccc2)s1)C(=O)N[C@H](CN)Cc1ccccc1` [Example 225], the concentration for half-maximal inhibition (IC50) is over 3 µM.

As for `CCC(=O)N[C@@H](Cc1ccc2ccccc2c1)C(=O)N[C@H](C(=O)N[C@@H](CCCCN)C(=O)NC1CCCCC1)[C@@H](C)CC` [Example 8], the half-maximal inhibitory concentration (IC50) is over 3 µM.

Turning to `CCC(=O)N[C@@H](Cc1nc2ccc(Cl)cc2s1)C(=O)N[C@@H](C)CN` [Example 220], the IC50 is over 10 µM.

`CCC(=O)N[C@@H](Cc1nc2ccc(C)cc2s1)C(=O)N[C@H](C(=O)N[C@@H](CCCCN)C(=O)N[C@@H]1CCOc2ccccc21)C1CCNCC1` [Example 180]: the IC50 is over 1 µM.

The test is the same for the next values; noted with them: read-out: Binding affinity to DCN1 (IC50 (nM)).
Take `CC[C@H](C)[C@H](NC(=O)[C@H](Cc1nc2ccc(C(C)C)cc2s1)NC(C)=O)C(=O)N[C@@H](CCCCN)C(=O)N[C@@H](CC(C)C)C(N)=O` [Example 5, (S)-2-((2S,3 S)-2-((S)-2-acetamido-3-(6-isopropylbenzo[d]thiazol-2-yl)propanamido)-3-methylpentanamido)-6-amino-N—((S)-1-amino-4-methyl-1-oxopentan-2-yl)hexanamide] (Ac-[Ala(6-iPr-benzothiazol-2-yl)]IKL-NH2): the half-inhibitory concentration (IC50) stood at 0.0401 µM.

Take `CCC(=O)N[C@H](CNC(=O)Cc1ccccc1)Cc1nc2ccc(Cl)cc2s1` [Example 253]: the IC50 was found to be 1.2 µM.

On to `CCC(=O)N[C@@H](Cc1nc2ccc(C(C)C)cc2s1)C(=O)N[C@H](C(=O)N[C@@H](CCCCN)C(=O)N[C@@H](CC(C)C)C(N)=O)C1CCCC1` [Example 285] (Propionyl-[Ala(6-iPr-benzothiazol-2-yl)][Gly(cPent)]KL-NH2), for which the IC50 was under 0.1 µM.

Turning to `CCC(=O)N[C@@H](Cc1ccc2ccccc2c1)C(=O)N[C@H](C(=O)N[C@@H](CCCCN)C(=O)NC(c1ccccc1)c1ccccc1)C1CCCC1` [Example 19], the IC50 turned out to be 0.27 µM.

On to `CCC(=O)N[C@H](CNC(=O)C1(N)CCCC1)Cc1nc2ccc(C(C)C)cc2s1` [Example 114], for which the 50% inhibitory concentration (IC50) was 1.55 µM.

Take `CCC(=O)N[C@@H](Cc1nc(C)c(-c2cccc(Cl)c2)s1)C(=O)N[C@H](CN)Cc1ccccc1` [Example 103]: the IC50 amounted to 0.264 µM.

Regarding `CCC(=O)N[C@@H](Cc1nc2ccc(C(C)C)cc2s1)C(=O)N[C@H](C(=O)NCCN1CCOCC1)C1CCN(C(=O)OC(C)(C)C)CC1` [Example 264], the IC50 is 1.5 µM.

As to `CCC(=O)N[C@@H](Cc1nc2ccc(Cl)cc2s1)C(=O)N[C@H](C(=O)N[C@@H](CCCCN)C(=O)NCc1ccncc1)C1CCOCC1` [Example 243], the 50% inhibitory concentration (IC50) worked out at 1.51 µM.

Regarding `CCC(=O)N[C@@H](Cc1nc2ccc(C(C)C)cc2s1)C(=O)N[C@H](CNC(=O)c1nnc[nH]1)C1CCCCC1` [Example 65], the concentration for half-maximal inhibition (IC50) came to 0.119 µM.

In the case of `CCC(=O)N[C@@H](Cc1nc2ccc(C)cc2s1)C(=O)N[C@H](C(=O)N[C@@H](CC1CCNCC1)C(=O)N[C@@H]1CCOc2ccccc21)C1CCOCC1` [Example 191], the IC50 was 0.187 µM.

As for `CCC(=O)N[C@@H](Cc1nc2ccc(CC)cc2s1)C(=O)N[C@H](CN)[C@@H](C)CC` [Example 215], the IC50 turned out to be 0.23 µM.

In the case of `CCC(=O)N[C@@H](Cc1nc(C)c(-c2ccccc2)s1)C(=O)N[C@H](CN)Cc1ccccc1` [Example 101], the IC50 is 1.74 µM.

Regarding `CC(C)C(=O)N[C@@H](Cc1nc2ccc(C(C)C)cc2s1)C(=O)N[C@H](CN)C1CCCCC1` [Example 263], the IC50 was 0.139 µM.

Take `CCC(=O)N[C@@H](Cc1nc2ccc(C)cc2s1)C(=O)N[C@@H](Cc1ccncc1)C(=O)N[C@@H](CCCCN)C(=O)N[C@@H]1CCOc2ccccc21` [Example 184]: the 50% inhibitory concentration (IC50) was found to be 0.149 µM.

For the molecule `CCC(=O)N[C@@H](Cc1ccc2ccccc2c1)C(=O)N[C@H](C(=O)N[C@@H](CCCCNC1CCN(C)CC1)C(=O)NC(c1ccc(F)cc1)c1ccc(F)cc1)C1CCCC1` [Example 144], the 50% inhibitory concentration (IC50) was 0.273 µM.

With `CCC(=O)N[C@@H](Cc1nc2ccc(C(C)C)cc2s1)C(=O)N[C@@H](CC(C)(C)C)C(=O)N[C@@H](CCCCN)C(=O)N[C@@H](CC(C)C)C(N)=O` [Example 283] (Propionyl-[Ala(6-iPr-benzothiazol-2-yl)][tBuAla]KL-NH2), the IC50 is 0.083 µM.

Regarding `CCC(=O)N[C@@H](Cc1nc2ccc(C(C)C)cc2s1)C(=O)N[C@H](COCCN1CCOCC1)C1CCCCC1` [Example 85], the IC50 came to 0.138 µM.

For the molecule `CC[C@H](C)[C@H](NC(=O)[C@H](Cc1nc2ccc(C(C)C)cc2s1)NC(=O)C(C)C)C(=O)N[C@@H](CCCCN)C(=O)N[C@@H](CC(C)C)C(N)=O` [Example 275] (Isobutyryl-[Ala(6-iPr-benzothiazol-2-yl)]IKL-NH2), the IC50 was 0.0778 µM.

As for `CC[C@H](C)[C@@H](CN)NC(=O)[C@H](Cc1nc2ccc(C(C)C)cc2s1)NC(=O)NC` [Example 52, (S)—N-((2S,3S)-1-amino-3-methylpentan-2-yl)-3-(6-isopropylbenzo[d]thiazol-2-yl)-2-(3-methylureido)propanamide], the IC50 stood at 0.558 ± 0.125 µM.

In the case of `CCC(=O)N[C@@H](Cc1nc2ccc(C)cc2s1)C(=O)N[C@@H](Cc1ccccn1)C(=O)N[C@@H](CCCCN)C(=O)N[C@@H]1CCOc2ccccc21` [Example 179], the IC50 was 0.133 µM.

Take `CCC(=O)N[C@@H](Cc1ccc2ccccc2c1)C(=O)N[C@H](C(=O)N[C@@H](CCCCN)C(=O)NC(c1ccc(F)cc1)c1ccc(F)cc1)C1CCCC1` [Example 138]: the half-maximal inhibitory concentration (IC50) was determined as 1.75 µM.

Regarding `CCC(=O)N[C@@H](Cc1nc2ccc(C(C)C)cc2s1)C(=O)N[C@H](CN)[C@@H](C)CC` [Example 47, (S)—N-((2S,3S)-1-amino-3-methylpentan-2-yl)-3-(6-isopropylbenzo[d]thiazol-2-yl)-2-propionamidopropanamide], the 50% inhibitory concentration (IC50) amounted to 0.095 ± 0.0158 µM.

Consider `CCC(=O)N[C@@H](Cc1ccc2ccccc2c1)C(=O)N[C@H](C(=O)N[C@@H](CCCCN)C(=O)N[C@H]1CCc2ccccc21)[C@@H](C)CC` [Example 14], for which the IC50 came to 1.93 µM.

Take `CCC(=O)N[C@@H](Cc1cn2cc(C(C)C)ccc2n1)C(=O)N[C@H](C(=O)N[C@@H](CCCCN)C(=O)N[C@@H]1CCOc2ccccc21)C1CCOCC1` [210 & 211]: the IC50 was determined as 0.0812 µM.

With `CCC(=O)N[C@H](CNC(=O)C1(N)CCCCC1)Cc1nc2ccc(C(C)C)cc2s1` [Example 110], the IC50 was 1.91 µM.

Regarding `CCC(=O)N[C@@H](Cc1nc2ccc(C(C)C)cc2s1)C(=O)N[C@H](CNC(=O)C1CCN(C(C)C)CC1)C1CCCCC1` [Example 71], the concentration for half-maximal inhibition (IC50) was found to be 0.11 µM.

Take `CCC(=O)N[C@@H](Cc1ccc2ccccc2c1)C(=O)N[C@H](C(=O)N[C@@H](CCCCN)C(=O)N[C@@H]1CNCc2ccccc21)C1CCCC1` [Example 160]: the IC50 was 0.457 µM.

`CCC(=O)N[C@@H](Cc1nc2ccc(C(C)C)cc2s1)C(=O)N[C@H](C(=O)N[C@@H](CCCCN)C(=O)N[C@@H](CC(C)C)C(N)=O)C1CCCCC1` [Example 286] (Propionyl-[Ala(6-iPr-benzothiazol-2-yl)][Chg]KL-NH2): the IC50 is 0.0583 µM.

On to `CCC(=O)N[C@@H](Cc1ccc2ccccc2c1)C(=O)N[C@@H](CC1CCCCC1)C(=O)N[C@@H](CCCCN)C(=O)NC(c1ccccc1)c1ccccc1` [Example 21], for which the IC50 turned out to be 0.29 µM.

Turning to `CCC(=O)N[C@@H](Cc1nc2ccc(Cl)cc2s1)C(=O)N[C@H](C(=O)N[C@@H](CCCCN(C)C)C(=O)N[C@@H]1CCOc2ccccc21)C1CCOCC1` [Example 38], the IC50 was determined as 0.123 µM.

As to `CCC(=O)N[C@@H](Cc1nc2ccc(CC)cc2s1)C(=O)N[C@H](C(=O)N[C@@H](CCCCN)C(=O)N[C@@H]1CCOc2ccccc21)C1CCCC1` [Example 176], the IC50 worked out at 0.079 µM.

As for `CCC(=O)N[C@H](CNC(=O)C1CCCCC1)Cc1nc2ccc(Cl)cc2s1` [Example 254], the IC50 was determined as 1.34 µM.

As for `CCC(=O)N[C@@H](Cc1nc2ccc(Cl)cc2s1)C(=O)N[C@H](C(=O)N[C@@H](CCCCN)C(=O)N[C@@H]1CCOc2cccc(Cl)c21)C1CCCC1` [Example 172], the IC50 was determined as 0.121 µM.

For the molecule `CCC(=O)N[C@@H](Cc1ccc2ccccc2c1)C(=O)N[C@H](C(=O)N[C@@H](CCCCN)C(=O)N[C@@H]1CCCc2ccccc21)C1CCCC1` [Example 148], the IC50 turned out to be 0.402 µM.

Regarding `CCC(=O)N[C@@H](Cc1nc2ccc(C(C)C)cc2s1)C(=O)N[C@H](C(=O)N[C@@H](CCCCN)C(=O)N[C@@H]1CCOc2ccccc21)C1CCOCC1` [Example 206], the IC50 was found to be 0.0429 µM.

Regarding `CC[C@H](C)[C@@H](CN)NC(=O)[C@H](Cc1nc2ccc(C(C)C)cc2s1)NC(=O)C(C)C` [Example 50, (S)—N-((2S,3S)-1-amino-3-methylpentan-2-yl)-2-isobutyramido-3-(6-isopropylbenzo[d]thiazol-2-yl)propanamide], the IC50 came out at 0.255 ± 0.029 µM.
